Source: patent US20100179142A1 (priority 2003, published 2010)

Assays:
MMTV-neu tumours = format: in vivo, mice
Method: Following pregnancy, which induces activation of the promoter, MMTV-neu mice spontaneously develop multiple tumours within each mammary gland. […] Control animals were dosed with vehicle (1% polysorbate 80). Due to variability in the growth of spontaneous tumours, dosing commenced at different times relative to the assessment of tumour volume, which was determined twice weekly on all animals using calipers. To simplify the analysis, data within each group were collated in 3 day intervals (e.g. tumour volumes from mice receiving either 2, 3 or 4 doses of compound were pooled and the mean volume plotted against “day 3”). Data is plotted for measurements grouped over 3 day periods ie 2-4, 5-7, 8-10 etc. Statistical analysis was performed on measurements between 20 and 22 days of dosing.

[1] = system: A431 vulval carcinoma xenografts; experiment: Human A431 vulval carcinoma tumour xenografts in nude mice; conditions: p.o. daily, AZD2171 3 mg/kg/day, ZD1839 50 mg/kg/day or both; for Number of tumours regressing after 24 days of treatment (treatment from day 28 to day 52): regressing/total
Method: 5×10^6 A431 tumour cells in 0.1 ml of serum free Dulbecco's Modified Eagle's Medium (DMEM) were injected subcutaneously (s.c.) into the flank of each athymic (nu/nu genotype) mouse. Eleven days after inoculation tumours were excised and dissected to generate cubic tumour fragments of 0.5-1 mm^3, which were implanted into further nude mice for a therapy experiment. Tumour volumes were assessed by bilateral Vernier caliper measurement and, taking length to be the longest diameter across the tumour and width the corresponding perpendicular, calculated using the formula (length×width)×the square root of (length×width)×(π/6). […] Inhibition of tumour growth from the start of treatment was assessed on day 45 (the point at which control animals were removed from the experiment because of tumour burden) by comparison of the differences in tumor volume between control and treated groups. In addition, the number of tumour regressions following 24 days of treatment was ascertained (tumour regression being evident if the tumour volume at day 52 was smaller than the pre-treatment value on day 28).

COc1cc2c(Oc3ccc4[nH]c(C)cc4c3F)ncnc2cc1OCCCN1CCCC1 [AZD2171, 4-(4-fluoro-2-methylindol-5-yloxy)-6-methoxy-7-(3-(pyrrolidin-1-yl)propoxy)quinazoline]
inhibition of growth of established MMTV-neu tumours (MMTV-neu tumours; AZD2171 alone 1 or 3 mg/kg/day, orally once-daily, 20-22 days of dosing, P<0.05): inhibited the growth of established (≧0.4 cm^3) MMTV-neu tumours significantly
Number of tumours regressing after 24 days of treatment (treatment from day 28 to day 52) [1]: 2/10
Mean % Inhibition of tumour growth following 17 days of treatment (treatment from day 28 to day 45) ([1]; versus control at day 45): 95% (P < 0.001)

COc1cc2ncnc(Nc3ccc(F)c(Cl)c3)c2cc1OCCCN1CCOCC1 [ZD1839, N-(3-chloro-4-fluorophenyl)-7-methoxy-6-(3-morpholinopropoxy)quinazolin-4-amine, reference compound]
anti-tumour effect in MMTV-neu mice (MMTV-neu tumours; mouse, in vivo): significant anti-tumour effect
Number of tumours regressing after 24 days of treatment (treatment from day 28 to day 52) [1]: 2/10
